Article PMC7038226, “Discovery of Novel Inhibitors Targeting Multi-UDP-hexose Pyrophosphorylases as Anticancer Agents” (Molecules, 2020)

How the values were obtained:
Type in all cases: biochemical
[1] = biological target: T1, GALT (Homo sapiens, UniProt P07902); assay: enzyme inhibition assay; conditions: residual activity, not per cent inhibition; inhibitor 25 µM printed for GAL-012, assumed for analogue; 5 min preincubation
T1 construct: recombinant, expressed in E. coli HMS174(DE3), Ni-NTA purified; plasmid from earlier work
T1 sequence (P07902 whole entry): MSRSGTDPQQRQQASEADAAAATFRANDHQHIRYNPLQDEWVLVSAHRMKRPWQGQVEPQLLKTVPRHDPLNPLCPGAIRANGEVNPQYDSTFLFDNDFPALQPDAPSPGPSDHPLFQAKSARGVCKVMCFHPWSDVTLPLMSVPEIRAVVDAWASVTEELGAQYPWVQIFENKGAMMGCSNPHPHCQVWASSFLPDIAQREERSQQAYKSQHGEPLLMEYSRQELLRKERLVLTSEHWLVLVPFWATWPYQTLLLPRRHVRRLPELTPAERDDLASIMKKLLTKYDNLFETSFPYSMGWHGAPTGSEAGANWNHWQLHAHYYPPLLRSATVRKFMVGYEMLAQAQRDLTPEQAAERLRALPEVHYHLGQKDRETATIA
Text: enzyme inhibition assay on GALT

[2] = biological target: T2, UGP2 (Homo sapiens, UniProt Q16851); assay: enzyme inhibition assay; conditions: residual activity, not per cent inhibition; inhibitor 25 µM printed for GAL-012, assumed for analogue; 5 min preincubation
T2 construct: recombinant, expressed in E. coli HMS174(DE3), Ni-NTA purified; plasmid from earlier work
T2 sequence (Q16851 1-508): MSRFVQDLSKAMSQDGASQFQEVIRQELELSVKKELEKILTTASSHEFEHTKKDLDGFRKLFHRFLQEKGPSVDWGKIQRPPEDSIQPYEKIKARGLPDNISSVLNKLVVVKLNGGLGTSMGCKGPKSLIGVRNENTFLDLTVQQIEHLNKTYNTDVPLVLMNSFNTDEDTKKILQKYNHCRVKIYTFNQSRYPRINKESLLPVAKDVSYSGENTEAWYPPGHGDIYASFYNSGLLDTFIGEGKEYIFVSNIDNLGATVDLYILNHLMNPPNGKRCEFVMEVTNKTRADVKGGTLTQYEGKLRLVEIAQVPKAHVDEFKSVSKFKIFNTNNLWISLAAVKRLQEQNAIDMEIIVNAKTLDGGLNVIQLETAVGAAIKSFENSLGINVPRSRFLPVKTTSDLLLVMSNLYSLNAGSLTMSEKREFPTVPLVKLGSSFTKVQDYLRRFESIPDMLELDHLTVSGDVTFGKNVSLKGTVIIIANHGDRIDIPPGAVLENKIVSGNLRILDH
Text: enzyme inhibition assay on UGP2

[3] = biological target: T2, UGP2; assay: enzyme inhibition assay
Text: enzyme inhibition assay on UGP2 | UDP-glucose pyrophosphorylase (UGP2)

[4] = biological target: T3, AGX1/UAP1 (Homo sapiens, UniProt Q16222); assay: enzyme inhibition assay; conditions: one value stated for GALT, UGP2 and AGX1/UAP1 together
T3 construct: full-length, cDNA from HepG2 cells, pET30A(+) in E. coli HMS174(DE3), Ni-NTA purified
T3 sequence (Q16222 1-505 isoform Q16222-2): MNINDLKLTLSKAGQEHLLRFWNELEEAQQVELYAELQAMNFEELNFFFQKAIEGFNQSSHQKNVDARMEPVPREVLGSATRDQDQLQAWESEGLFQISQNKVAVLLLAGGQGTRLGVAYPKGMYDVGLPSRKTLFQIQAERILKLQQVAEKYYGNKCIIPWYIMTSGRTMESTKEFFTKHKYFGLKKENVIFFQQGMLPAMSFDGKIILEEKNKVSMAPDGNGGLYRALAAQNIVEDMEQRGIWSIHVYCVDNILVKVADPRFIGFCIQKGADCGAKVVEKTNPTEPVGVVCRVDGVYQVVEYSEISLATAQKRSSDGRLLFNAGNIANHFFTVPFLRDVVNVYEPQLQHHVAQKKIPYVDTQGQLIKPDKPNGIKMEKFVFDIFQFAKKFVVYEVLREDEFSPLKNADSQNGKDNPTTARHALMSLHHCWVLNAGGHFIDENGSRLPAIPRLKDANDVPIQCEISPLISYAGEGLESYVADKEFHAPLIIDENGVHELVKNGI

[5] = biological target: T1, GALT; assay: initial velocities, Lineweaver-Burk
[6] = biological target: T1, GALT; assay: enzyme inhibition assay
Text: enzyme inhibition assay on GALT | GAL-012, that inhibit a small family of UDP-hexose pyrophosphorylases-galactose pyro-phosphorylase (GALT)

Enzyme Inhibitory Activity / GALT [1]	Enzyme Inhibitory Activity / UGP2 [2]	IC50 [3]	IC50 [4]	Ki [5]	IC50 [6]	Compound
63.4 ± 2.3%	63.8 ± 4%	–	–	–	–	CN(C)/C=C/C(=O)c1ccc2c(c1)C(C)(C)C(=O)N2C [GAL-012-2]
–	–	30 µM	30 µM	~30 µM	30 µM	CN1C(=O)C(C)(C)c2cc(-c3ccnc(N)n3)ccc21 [GAL-012]
